Test results: patent US9988430B2, “Stable GLP-1 based GLP-1/glucagon receptor co-agonists” (Novo Nordisk A/S, priority 2014, dated 2018)
*1 amine or outer side, *2 acyl side, *3 side chain or, on linkers, in order; H or OH if unused. Where a SMILES comes first, the peptide text is derived from it. Side-chain parts run from the residue outwards. [ ]: non-standard residue; d: D form. The star is where a group is joined. C18 diacid = O=C(O)CCCCCCCCCCCCCCCCC(=O)*; γGlu = O=C(O)[C@H](CCC(=O)[*:2])N[*:1]; C14 diacid = O=C(O)CCCCCCCCCCCCC(=O)*; Desaminohistidyl = O=C(CCc1c[nH]cn1)*; AEEA = NCCOCCOCC(=O)O; Aib = CC(C)(N)C(=O)O

Key:
human glucagon receptor [1] = target: T1, human glucagon receptor (Homo sapiens, UniProt P47871); test: Assay (II)(b): glucagon receptor binding, [125I]-glucagon displacement, SPA on BHK membranes; conditions: displacement of [125I]-glucagon, membranes with human glucagon receptor; read-out: IC50 GlucagonR
T1 construct: expressed in transfected cells; host or cells: membranes of BHK cells, clone BHK hGCGR A3*25
T1 sequence (P47871 26-477): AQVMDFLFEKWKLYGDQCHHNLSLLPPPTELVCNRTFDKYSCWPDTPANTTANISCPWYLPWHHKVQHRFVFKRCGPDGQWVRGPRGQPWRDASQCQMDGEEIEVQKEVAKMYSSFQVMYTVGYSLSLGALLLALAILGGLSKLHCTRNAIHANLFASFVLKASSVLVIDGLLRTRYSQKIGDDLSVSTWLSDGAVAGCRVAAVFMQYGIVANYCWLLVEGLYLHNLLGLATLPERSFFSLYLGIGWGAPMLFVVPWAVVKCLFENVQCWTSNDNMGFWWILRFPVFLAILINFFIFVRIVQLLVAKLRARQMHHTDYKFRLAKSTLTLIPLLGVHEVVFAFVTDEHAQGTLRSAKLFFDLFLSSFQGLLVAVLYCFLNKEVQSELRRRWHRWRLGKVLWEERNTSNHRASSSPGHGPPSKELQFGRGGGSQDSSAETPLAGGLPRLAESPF
Procedure: Assay (II): GLP-1 and Glucagon Receptor Binding The purpose of this assay is to test the in vitro receptor binding activity of the GLP-1 derivatives of the invention. (b) Glucagon Receptor Binding The glucagon receptor (glucagonR) binding activity is a measure of affinity of a derivative for the human glucagon receptor. The glucagon receptor binding of each derivative were determined with competitive binding, displacing [^125I]-glucagon bound to glucagon receptors expressed in cell membranes associated with wheat germ agglutinin (WGA) scintillation proximity assay (SPA) beads. Each derivative was added in a series of concentrations to isolated membranes comprising the human glucagon receptor and displacement of the labelled ligand was monitored. The receptor binding was reported as the concentration at which half of the labelled ligand is displaced from the receptor, the IC^50 value. The following chemicals were used in the assay: DMEM w Glutamax (Gibco 61965-026), Pen/strep (Invitrogen 15140-122), G418 (Invitrogen 10131-027), Versene (Gibco 15040), 1 M Hepes (Gibco 15630), PBS (Invitrogen 14190-094), fetal calf serum (Invitrogen 16140-071), MgCl2 (Merck 1.05832.1000), EDTA (Invitrogen 15575-038), CaCl2 (Sigma, C5080), Tween 20 (Amresco 0850C335), ovalbumin (Sigma A5503), SPA particles (wheat germ agglutinin (WGA) SPA beads, Perkin Elmer RPNQ0001), [125I]-glucagon (produced in-house), OptiPlate™-96 (Packard 6005290). HME buffer consisted of 25 mM HEPES, 2 mM MgCl2 and 1 mM EDTA, and pH was adjusted to 7.4. Assay buffer consisted of 50 mM HEPES supplemented with 5 mM MgCl2, 1 mM CaCl2, 0.02% Tween 20 and 0.1% Ovalbumin, and pH was adjusted to 7.4. The cells used in this assay (clone BHK hGCGR A3*25) were BHK cells stable transfected with an expression plasmid comprising the cDNA encoding the human glucagon receptor. The cells were grown at 5% CO2 in DMEM, 10% fetal calf serum, 1% Pen/Strep (Penicillin/Streptomycin) and 1.0 mg/ml of the selection marker G418. To make a membrane preparation the cells were grown to approximately 80% confluence. The cells were washed twice in phosphate-buffered saline and harvested. The cells were pelleted using a brief centrifugation and the cell pellet was kept on ice. Lyse the cells by adding approx. 5 ml HME buffer, mix by pipetting and snap freeze in liquid nitrogen. Thaw quickly and add HME buffer to 10 ml. The cell pellet was homogenised with an ULTRA-THURRAX dispersing instrument for 20-30 seconds. The homogenate was centrifuged at 20.000×G, 4° C. for 10 minutes. The pellet was resuspended (homogenised) in 1-2 ml HME buffer. The protein concentration was determined. The membranes were aliquoted and snapfrozen in liquid nitrogen and stored at minus 80° C. • 1. For the receptor binding assay 50 μl of the assay buffer was added to each well of an assay plate. • 2. Test compounds were serially diluted to give the following concentrations: 8×10EE-7 M, 8×10EE-8 M, 8×10EE-9 M, 8×10EE-10 M, 8×10EE-11 M, 8×10EE-12 M and 8×10EE-13 M. Twenty-five μl were added to appropriate wells in the assay plate. • 3. Cell membrane aliquots were thawed and diluted to their working concentration. Fifty μl were added to each well in the assay plate. • 4. WGA SPA beads were suspended in assay buffer at 20 mg/ml. The suspension was diluted to 10 mg/ml in assay buffer just prior to addition to the assay plate. Fifty μl were added to each well in the assay plate. • 5. The incubation was started by adding 25 μl of 480 pM solution of [125I]-glucagon to each well of the assay plate. A 25 μl aliquot was reserved for measuring total counts/well. • 6. The assay plate was incubated for 2 h at 25° C. • 7. The assay plate was centrifuged for 10 min at 1500 rpm. • 8. The assay plate was read in a Perkin Elmer TopCount NXT instrument. Calculations The data from the TopCount instrument were transferred to GraphPad Prism software. The software averaged the values for the replicates and performed a non-linear regression. […]

human GLP-1 receptor = target: T2, human GLP-1 receptor (Homo sapiens, UniProt P43220); test: Assay (I)(a): GLP-1 receptor potency, CRE luciferase reporter gene assay in BHK cells; assay type: cell-based; conditions: BHK cells expressing human GLP-1 receptor, read-out: EC50 GLP-1R
T2 construct: expressed in transfected cells; host or cells: membranes of BHK cells, parent line BHKTS13, clone FCW467-12A
T2 sequence (P43220 24-463): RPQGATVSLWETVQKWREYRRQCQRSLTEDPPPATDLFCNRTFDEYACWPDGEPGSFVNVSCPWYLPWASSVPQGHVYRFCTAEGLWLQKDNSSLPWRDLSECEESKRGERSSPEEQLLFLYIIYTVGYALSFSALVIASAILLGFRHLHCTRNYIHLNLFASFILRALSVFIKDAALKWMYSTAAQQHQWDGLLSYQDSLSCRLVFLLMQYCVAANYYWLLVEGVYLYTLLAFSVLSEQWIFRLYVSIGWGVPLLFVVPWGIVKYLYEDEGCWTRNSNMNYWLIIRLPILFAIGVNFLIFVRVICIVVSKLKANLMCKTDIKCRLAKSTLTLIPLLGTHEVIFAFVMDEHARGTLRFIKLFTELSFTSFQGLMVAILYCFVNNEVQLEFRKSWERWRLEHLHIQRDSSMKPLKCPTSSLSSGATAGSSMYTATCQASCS
Outline: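 BHK cells (clone FCW467-12A/KZ10-1), 5×10EE3/well, exposed 3 h at 37° C to compound at 1×10EE-13 to 1×10EE-6 M final in medium with 2% ovalbumin and 0.2% Pluronic F-68. Luciferase luminescence read; EC50 (pM) from four-parameter fit.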

human glucagon receptor [2] = target: T1, human glucagon receptor; test: Assay (I)(b): glucagon receptor potency, CRE luciferase reporter gene assay in BHK cells; assay type: cell-based; conditions: BHK cells expressing human glucagon receptor, read-out: EC50 GlucagonR
Procedure: Assay (I): GLP-1 and Glucagon Receptor Potency The purpose of this example was to test the activity or potency, of the GLP-1 derivatives of the invention, in vitro. The in vitro potency is the measure of human GLP-1 receptor (GLP-1R) or glucagon receptor (glucagonR) activation, respectively, in a whole cell assay. In vitro potency was determined by measuring the cellular response of human GLP-1 or glucagon receptor activation, respectively, in a reporter gene assay. The assay was performed in a BHK cell line that stably expresses either the human GLP-1 receptor or the human glucagon receptor and comprises the DNA for the cAMP response element (CRE) coupled to a promoter and the gene for firefly luciferase (CRE luciferase). […] When assay incubation was completed, the luciferase substrate (luciferin) was added and the enzyme converted luciferin to oxyluciferin and produces bioluminescence. The luminescence was measured as the readout for the assay. […] The cells were counted and adjusted to 5×10EE3 cells/50 μl (1×10EE5 cells/ml) in Assay Medium. […] Each assay plate was read in a Perkin Elmer TopCount NXT instrument. […] EC50 values were calculated by the software and reported in pM.

Structure (SMILES)	IC50 (human glucagon receptor [1]) [nM]	EC50 (human GLP-1 receptor) [nM]	EC50 (human glucagon receptor [2]) [nM]
CC[C@H](C)[C@H](NC(=O)[C@H](Cc1ccccc1)NC(=O)[C@H](CCC(=O)O)NC(=O)[C@H](CCCNC(=N)N)NC(=O)[C@H](C)NC(=O)[C@H](C)NC(=O)[C@H](CCC(N)=O)NC(=O)[C@H](CCC(=O)O)NC(=O)[C@H](CCC(=O)O)NC(=O)[C@H](CC(C)C)NC(=O)[C@H](Cc1ccc(O)cc1)NC(=O)[C@H](CCCCN)NC(=O)[C@H](CO)NC(=O)[C@@H](NC(=O)[C@H](CC(=O)O)NC(=O)[C@H](CO)NC(=O)[C@@H](NC(=O)[C@H](Cc1ccccc1)NC(=O)[C@@H](NC(=O)CNC(=O)[C@H](Cc1c[nH]cn1)NC(=O)C(C)(C)NC(=O)CCc1c[nH]cn1)[C@@H](C)O)[C@@H](C)O)C(C)C)C(=O)N[C@@H](C)C(=O)N[C@@H](Cc1c[nH]c2ccccc12)C(=O)N[C@@H](CC(C)C)C(=O)N[C@@H](CC(C)C)C(=O)N[C@@H](CCCCNC(=O)COCCOCCNC(=O)COCCOCCNC(=O)CC[C@H](NC(=O)CC[C@H](NC(=O)CCCCCCCCCCCCC(=O)O)C(=O)O)C(=O)O)C(=O)N[C@H](C(N)=O)[C@@H](C)O [Example 38, N^ε34-[2-[2-[2-[[2-[2-[2-[[(4S)-4-carboxy-4-[[(4S)-4-carboxy-4-(13-carboxytridecanoylamino)butanoyl]amino]butanoyl]amino]ethoxy]ethoxy]acetyl]amino]ethoxy]ethoxy]acetyl]-[Imp7,Aib8,His9,Lys18,Glu22,Arg26,Leu33,Thr35]-GLP-1-(7-35)-peptide amide] (Desaminohistidyl-[Aib]HGTFTSDVSKYLEEQAAREFIAWLLK([AEEA-AEEA-γGlu-γGlu-C14 diacid])T-NH2)	3.7	0.012	–
CC[C@H](C)[C@H](NC(=O)[C@H](Cc1ccccc1)NC(=O)[C@H](CCCCNC(=O)COCCOCCNC(=O)COCCOCCNC(=O)CC[C@H](NC(=O)CC[C@H](NC(=O)CC[C@H](NC(=O)CCCCCCCCCCCCCCCCC(=O)O)C(=O)O)C(=O)O)C(=O)O)NC(=O)[C@H](CCCNC(=N)N)NC(=O)[C@H](C)NC(=O)[C@H](C)NC(=O)[C@H](CCC(N)=O)NC(=O)[C@H](CCC(=O)O)NC(=O)[C@H](CCC(=O)O)NC(=O)[C@H](CC(C)C)NC(=O)[C@H](Cc1ccc(O)cc1)NC(=O)[C@H](CCCNC(=N)N)NC(=O)[C@H](CO)NC(=O)[C@@H](NC(=O)[C@H](CC(=O)O)NC(=O)[C@H](CO)NC(=O)[C@@H](NC(=O)[C@H](Cc1ccccc1)NC(=O)[C@@H](NC(=O)CNC(=O)[C@H](Cc1c[nH]cn1)NC(=O)C(C)(C)NC(=O)CCc1c[nH]cn1)[C@@H](C)O)[C@@H](C)O)C(C)C)C(=O)N[C@@H](C)C(=O)N[C@@H](Cc1c[nH]c2ccccc12)C(=O)N[C@@H](CC(C)C)C(=O)N[C@@H](CC(C)C)C(=O)N[C@@H](CCCNC(=N)N)C(=O)O [Example 19, N^ε27-[2-[2-[2-[[2-[2-[2-[[(4S)-4-carboxy-4-[[(4S)-4-carboxy-4-[[(4S)-4-carboxy-4-(17-carboxyheptadecanoylamino)butanoyl]amino]butanoyl]amino]butanoyl]amino]ethoxy]ethoxy]acetyl]amino]ethoxy]ethoxy]acetyl]-[Imp7,Aib8,His9,Arg18,Glu22,Arg26,Lys27,Leu33,Arg34]-GLP-1-(7-34)-peptide] (Desaminohistidyl-[Aib]HGTFTSDVSRYLEEQAARK([AEEA-AEEA-γGlu-γGlu-γGlu-C18 diacid])FIAWLLR-OH)	–	0.007	0.143
